According to patent US20170238571A1, “A SYNERGISTIC COMPOSITION COMPRISING A MIXTURE OF BACTERIA OF THE GENERA LACTOBACILLUS AND PROPIONOBACTERIUM PARTICULARLY USEFUL TO REDUCE OR ELIMINATE PATHOGEN CONTAMINATION IN SOYBEN MEAL AND ITS DERIVATIVES; METHODS AND USES THEREOF” (Molinos Río de la Plata S.A., priority 2014, published 2017):

How the values were obtained:
Type in all cases: cell-based
[1] = tested on: Salmonella; test: Residual effect: contamination and recontamination with Salmonella after treatment of soybean meal; conditions: 25° C. - 12% DBM; for Average (n = 3): Salmonella count; for LOG10 (CFU/g): Salmonella
Method: (§1) In order to assess the effectiveness of the mix of the invention in the matrix of interest, an appropriate working protocol was prepared. Initially, 500 g of soybean meal were infected with 50 mL of Salmonella solution whose composition was: 10^6 CFUS. typhimurium/mL, 10^6 CFUS. enteritidis /mLand 10^6 CFUS. heidelberg /mL in equal amounts. […] Daily determinations of Salmonella colony forming units were performed on this contaminated meal. To this end, 40.5 g of BPW to 4.5 g of the resulting meal were added and vigorously stirred, and then 100μL of this solution, were plated onto Salmonella-Shigella agar (SS Agar). When microorganisms were used in the protecting mixes, concentrations were carefully balanced, and the amount of bacteria added was always the same.
For this reason it was decided to study the response of meals protected with different solutions, by contaminating them at different times after protection. Given the complexity of the logistics of meal products, they were tested at two different times: initial contamination and recontamination on the first week after treatment; and, contamination on the fourth week with subsequent recontamination on the fifth week after treatment. In all cases, itl was contaminated and recontaminated with Salmonella solutions whose concentration was approximately 10^6 CFU/mL (as previously described).

[2] = tested on: Salmonella (S. typhimurium, S. enteritidis, S. heidelberg); test: Effectiveness of mixes against Salmonella in soybean meal at different temperatures; conditions: for Average (n = 3): Salmonella count; for LOG10 (CFU/g): Salmonella
Method: as §1, with “amounts. […] 50 g of the wet meal obtained (≈25% moisture content on dry basis) were mixed within the dry meal (≈10% moisture content dry basis) and were stirred for 10 minutes.” for “amounts.”
(§2) In the cases in which solutions with ferments were used for protection purposes, cell concentration was of about 10^8 CFU/mL.
The following tests were carried out to assess the effectiveness of different mixes under different conditions. To assess extreme temperatures, meal products were stored at 5, 25, and 32° C., after contamination and protection, respectively. Samples were taken every 24 hours and triplicate determinations of Salmonella, lactic and propionic bacteria were made.

[3] = tested on: Salmonella (S. typhimurium, S. enteritidis, S. heidelberg); test: Effectiveness of mixes against Salmonella in soybean meal with 8% DBM; conditions: 25° C. - 8% DBM; for Average (n = 3): Salmonella count; for LOG10 (CFU/g): Salmonella
Method: as §1, with “amounts. […] 50 g of the wet meal obtained (≈25% moisture content on dry basis) were mixed within the dry meal (≈10% moisture content dry basis) and were stirred for 10 minutes.” for “amounts.”
as §2
After oil is stripped from the soybean flakes during the extraction process, the latter goes through a desolventizer to evaporate the residual hexane remaining after extraction. This process adds moisture to the flakes, since desolventizing is a process that uses steam. Once the soybean flake is desolventized, it is dried to obtain the desired moisture level. The moisture content assessed on a dry basis of a typical meal product is around 11-12% DBM; however, at present we can find meals on the market with a moisture content ranging from 8-13% DBM. The effectiveness of the mix of the invention was tested in meals with different moisture contents.

[4] = day 8, after RECONTAMINATION (first week)
[5] = day 9, after RECONTAMINATION (first week)
[6] = day 11, after RECONTAMINATION (first week)
[7] = day 12, after RECONTAMINATION (first week)
[8] = day 13, after RECONTAMINATION (first week)
[9] = day 14, after RECONTAMINATION (first week)
[10] = day 15, after RECONTAMINATION (first week)
[11] = day 37, contamination on the fourth week after treatment
[12] = day 38, after RECONTAMINATION (fifth week)
[13] = day 39, after RECONTAMINATION (fifth week)
[14] = day 41, after RECONTAMINATION (fifth week)
[15] = day 42, after RECONTAMINATION (fifth week)
[16] = day 44, after RECONTAMINATION (fifth week)

## CCC(=O)O [Propionic Acid]
[1]; day 2, initial contamination
  Average (n = 3): 130
[1]; day 3, initial contamination
  Average (n = 3): 100.3
[1]; day 4, initial contamination
  Average (n = 3): 90.5
[1]; day 5, initial contamination
  Average (n = 3): 77
[1]; day 6, initial contamination
  Average (n = 3): 58
[1]; day 7, initial contamination
  Average (n = 3): 32
[1]; [4]
  Average (n = 3): 215
  LOG10 (CFU/g): 3.68 LOG10 (CFU/g)
[1]; [5]
  Average (n = 3): 189.33
  LOG10 (CFU/g): 3.62 LOG10 (CFU/g)
[1]; day 10, after RECONTAMINATION (first week)
  Average (n = 3): 144.33
[1]; [6]
  Average (n = 3): 109
  LOG10 (CFU/g): 3.38 LOG10 (CFU/g)
[1]; [7]
  Average (n = 3): 96.67
  LOG10 (CFU/g): 3.33 LOG10 (CFU/g)
[1]; [8]
  Average (n = 3): 70.67
  LOG10 (CFU/g): 3.20 LOG10 (CFU/g)
[1]; [9]
  Average (n = 3): 48.67
  LOG10 (CFU/g): 3.03 LOG10 (CFU/g)
[1]; [10]
  Average (n = 3): 40
  LOG10 (CFU/g): 2.95 LOG10 (CFU/g)
[1]; day 32, contamination on the fourth week after treatment
  Average (n = 3): 130
[1]; day 33, contamination on the fourth week after treatment
  Average (n = 3): 120.3
[1]; day 34, contamination on the fourth week after treatment
  Average (n = 3): 90.5
[1]; day 35, contamination on the fourth week after treatment
  Average (n = 3): 77
[1]; day 36, contamination on the fourth week after treatment
  Average (n = 3): 58
[1]; [11]
  Average (n = 3): 39
  LOG10 (CFU/g): 2.94 LOG10 (CFU/g)
[1]; [12]
  Average (n = 3): 247
  LOG10 (CFU/g): 3.74 LOG10 (CFU/g)
[1]; [13]
  Average (n = 3): 189
  LOG10 (CFU/g): 3.62 LOG10 (CFU/g)
[1]; day 40, after RECONTAMINATION (fifth week)
  Average (n = 3): 174.34
[1]; [14]
  Average (n = 3): 156.34
  LOG10 (CFU/g): 3.54 LOG10 (CFU/g)
[1]; [15]
  Average (n = 3): 136.34
  LOG10 (CFU/g): 3.48 LOG10 (CFU/g)
[1]; day 43, after RECONTAMINATION (fifth week)
  Average (n = 3): 111.67
[1]; [16]
  Average (n = 3): 88.34
  LOG10 (CFU/g): 3.29 LOG10 (CFU/g)
[1]; day 45, after RECONTAMINATION (fifth week)
  Average (n = 3): 77
[2]; 5° C. - 12% DBM, 0 days
  Average (n = 3): 199.76
  LOG10 (CFU/g): 3.65 LOG10 (CFU/g)
[2]; 5° C. - 12% DBM, 1 day
  Average (n = 3): 165
  LOG10 (CFU/g): 3.56 LOG10 (CFU/g)
[2]; 5° C. - 12% DBM, 2 days
  Average (n = 3): 131.3
  LOG10 (CFU/g): 3.47 LOG10 (CFU/g)
[2]; 5° C. - 12% DBM, 3 days
  Average (n = 3): 90.67
  LOG10 (CFU/g): 3.30 LOG10 (CFU/g)
[2]; 5° C. - 12% DBM, 4 days
  Average (n = 3): 61
  LOG10 (CFU/g): 3.13 LOG10 (CFU/g)
[2]; 5° C. - 12% DBM, 5 days
  Average (n = 3): 57
  LOG10 (CFU/g): 3.10 LOG10 (CFU/g)
[2]; 5° C. - 12% DBM, 6 days
  Average (n = 3): 38
  LOG10 (CFU/g): 2.93 LOG10 (CFU/g)
[2]; 25° C. - 12% DBM, 0 days
  Average (n = 3): 199.67
  LOG10 (CFU/g): 3.65 LOG10 (CFU/g)
[2]; 25° C. - 12% DBM, 1 day
  Average (n = 3): 145.33
  LOG10 (CFU/g): 3.51 LOG10 (CFU/g)
[2]; 25° C. - 12% DBM, 2 days
  Average (n = 3): 110
  LOG10 (CFU/g): 3.39 LOG10 (CFU/g)
[2]; 25° C. - 12% DBM, 3 days
  Average (n = 3): 90
  LOG10 (CFU/g): 3.30 LOG10 (CFU/g)
[2]; 25° C. - 12% DBM, 4 days
  Average (n = 3): 60.67
  LOG10 (CFU/g): 3.13 LOG10 (CFU/g)
[2]; 25° C. - 12% DBM, 5 days
  Average (n = 3): 57
  LOG10 (CFU/g): 3.10 LOG10 (CFU/g)
[2]; 25° C. - 12% DBM, 6 days
  Average (n = 3): 38
  LOG10 (CFU/g): 2.93 LOG10 (CFU/g)
[2]; 32° C. - 12% DBM, 0 days
  Average (n = 3): 199.67
  LOG10 (CFU/g): 3.65 LOG10 (CFU/g)
[2]; 32° C. - 12% DBM, 1 day
  Average (n = 3): 175
  LOG10 (CFU/g): 3.59 LOG10 (CFU/g)
[2]; 32° C. - 12% DBM, 2 days
  Average (n = 3): 130
  LOG10 (CFU/g): 3.46 LOG10 (CFU/g)
[2]; 32° C. - 12% DBM, 3 days
  Average (n = 3): 100.33
  LOG10 (CFU/g): 3.35 LOG10 (CFU/g)
[2]; 32° C. - 12% DBM, 4 days
  Average (n = 3): 90.67
  LOG10 (CFU/g): 3.30 LOG10 (CFU/g)
[2]; 32° C. - 12% DBM, 5 days
  Average (n = 3): 77
  LOG10 (CFU/g): 3.23 LOG10 (CFU/g)
[2]; 32° C. - 12% DBM, 6 days
  Average (n = 3): 58
  LOG10 (CFU/g): 3.11 LOG10 (CFU/g)
[3]; 0 hours
  Average (n = 3): 199.67
  LOG10 (CFU/g): 3.65 LOG10 (CFU/g)
[3]; 12 hours
  Average (n = 3): 175
  LOG10 (CFU/g): 3.59 LOG10 (CFU/g)
[3]; 24 hours
  Average (n = 3): 130
  LOG10 (CFU/g): 3.46 LOG10 (CFU/g)
[3]; 36 hours
  Average (n = 3): 100.33
  LOG10 (CFU/g): 3.35 LOG10 (CFU/g)
[3]; 48 hours
  Average (n = 3): 90.67
  LOG10 (CFU/g): 3.30 LOG10 (CFU/g)
[3]; 60 hours
  Average (n = 3): 77
  LOG10 (CFU/g): 3.23 LOG10 (CFU/g)
[3]; 72 hours
  Average (n = 3): 58
  LOG10 (CFU/g): 3.11 LOG10 (CFU/g)
[3]; 84 hours
  Average (n = 3): 32.33
  LOG10 (CFU/g): 2.85 LOG10 (CFU/g)
[3]; 96 hours
  Average (n = 3): 15
  LOG10 (CFU/g): 2.52 LOG10 (CFU/g)
